Measurements as given in ChEMBL document CHEMBL1671661, “Inhibition of intracellular growth of Salmonella enterica serovar Typhimurium in tissue culture by antisense peptide-phosphorodiamidate morpholino oligomer” (Antimicrob Agents Chemother, 2009).
In brackets after ≈: the same amount, converted by molar mass. Activity calls are given as the source filed them. The rule behind the calls is not given here.

What was measured:
Salmonella typhimurium [1] = experiment: Antibacterial activity against Salmonella enterica serovar Typhimurium 14028s by CLSI M7-A7 microdilution method; type: functional, Salmonella enterica subsp. enterica serovar Typhimurium
Salmonella typhimurium [2] = experiment: Antibacterial activity against 9.0 x 10^7 CFU/ml Salmonella enterica serovar Typhimurium 14028s infected in RAW264.7 mouse macrophages assessed as decrease in intracellular bacterial level at 3 uM measured 18 hrs post infection; type: functional, organism-based; conditions: Salmonella enterica subsp. enterica serovar Typhimurium
Salmonella typhimurium [3] = experiment: Antibacterial activity against 9.0 x 10^7 CFU/ml Salmonella enterica serovar Typhimurium 14028s infected in RAW264.7 mouse macrophages assessed as decrease in intracellular bacterial level at 3 uM measured 42 hrs post infection relative to untreated control; type: functional
Salmonella typhimurium [4] = experiment: Antibacterial activity against 9.0 x 10^7 CFU/ml Salmonella enterica serovar Typhimurium 14028s assessed as decrease in growth rate at 2.5 uM by spectrophotometry; type: functional, organism-based; conditions: Salmonella enterica subsp. enterica serovar Typhimurium
Salmonella typhimurium [5] = experiment: Antibacterial activity against 9.0 x 10^7 CFU/ml Salmonella enterica serovar Typhimurium 14028s assessed as decrease in bacterial viable cell count at 2.5 uM by spectrophotometry; type: functional, organism-based; conditions: Salmonella enterica subsp. enterica serovar Typhimurium
Salmonella typhimurium [6] = experiment: Antibacterial activity against 9.0 x 10^7 CFU/ml Salmonella enterica serovar Typhimurium 14028s infected in RAW264.7 mouse macrophages assessed as decrease in intracellular bacterial level at 3 uM measured 2 hrs post infection; type: functional
Serum = experiment: Drug concentration in rat serum administered as single bolus dose; type: ADME, organism-based; conditions: in vivo
Salmonella typhimurium [7] = experiment: Antibacterial activity against 9.0 x 10^7 CFU/ml Salmonella enterica serovar Typhimurium 14028s assessed as decrease in bacterial viable cell count at 2.5 uM by spectrophotometry relative to untreated control; type: functional, Salmonella enterica subsp. enterica serovar Typhimurium
Salmonella typhimurium [8] = experiment: Antibacterial activity against 9.0 x 10^7 CFU/ml Salmonella enterica serovar Typhimurium 14028s assessed as decrease in growth rate at 50 uM by spectrophotometry; type: functional, organism-based; conditions: Salmonella enterica subsp. enterica serovar Typhimurium
[9] = Salmonella enterica subsp. enterica serovar Typhimurium

SMILES | MIC (Salmonella typhimurium [1]) [µM] | Drug uptake (Serum) [µg/mL] | Activity (Salmonella typhimurium [2]) | Activity (Salmonella typhimurium [3]; [9]) | Activity (Salmonella typhimurium [4]) | Activity (Salmonella typhimurium [5]) | Activity (Salmonella typhimurium [6]; [9]) | fold change (FC) (Salmonella typhimurium [3]) | fold change (FC) (Salmonella typhimurium [7]) | Activity (Salmonella typhimurium [6]) [%] | Activity (Salmonella typhimurium [8])
CC(=O)N[C@@H](CCCNC(=N)N)C(=O)NCCCCCC(=O)N[C@@H](CCCNC(=N)N)C(=O)N[C@@H](CCCNC(=N)N)C(=O)NCCCCCC(=O)N[C@@H](CCCNC(=N)N)C(=O)[C@H](CCCNC(=N)N)NC(=O)CCCCCNC(=O)N[C@@H](CCCNC(=N)N)C(=O)N[C@@H](CCCNC(=N)N)C(=O)NCCCCCC(=O)N[C@@H](CCCNC(=N)N)C(=O)NCCCCCC(=O)NCCC(=O)N1C[C@@H](COP(=O)(N2CCNCC2)N2C[C@@H](COP(=O)(N(C)C)N3C[C@@H](COP(=O)(N(C)C)N4C[C@@H](COP(=O)(N5CCNCC5)N5C[C@@H](COP(=O)(N(C)C)N6C[C@@H](COP(=O)(N(C)C)N7C[C@@H](COP(=O)(N(C)C)N8C[C@@H](COP(=O)(N(C)C)N9C[C@@H](COP(=O)(N%10CCNCC%10)N%10C[C@@H](COP(=O)(N(C)C)N%11C[C@@H](CO)O[C@@H](n%12cc(C)c(=O)[nH]c%12=O)C%11)O[C@@H](n%11ccc(N)nc%11=O)C%10)O[C@@H](n%10cc(C)c(=O)[nH]c%10=O)C9)O[C@@H](n9ccc(N)nc9=O)C8)O[C@@H](n8cnc9c(N)ncnc98)C7)O[C@@H](n7cnc8c(=O)[nH]c(N)nc87)C6)O[C@@H](n6cnc7c(N)ncnc76)C5)O[C@@H](n5cc(C)c(=O)[nH]c5=O)C4)O[C@@H](n4cnc5c(=O)[nH]c(N)nc54)C3)O[C@@H](n3cnc4c(=O)[nH]c(N)nc43)C2)O[C@@H](n2cc(C)c(=O)[nH]c2=O)C1 (stereo partly drawn) | > 160 | – | inactive | inactive | inactive | inactive | inactive | – | – | – | –
CC1(C)S[C@@H]2[C@H](NC(=O)[C@H](N)c3ccccc3)C(=O)N2[C@H]1C(=O)O [AMPICILLIN] | 20 (≈ 6.99 µg/mL) | – | – | – | – | – | – | – | – | – | –
CC(=O)N[C@@H](CCCNC(=N)N)C(=O)NCCCCCC(=O)N[C@@H](CCCNC(=N)N)C(=O)N[C@@H](CCCNC(=N)N)C(=O)NCCCCCC(=O)N[C@@H](CCCNC(=N)N)C(=O)[C@H](CCCNC(=N)N)NC(=O)CCCCCNC(=O)N[C@@H](CCCNC(=N)N)C(=O)N[C@@H](CCCNC(=N)N)C(=O)NCCCCCC(=O)N[C@@H](CCCNC(=N)N)C(=O)NCCCCCC(=O)NCCC(=O)N1C[C@@H](COP(=O)(N(C)C)N2C[C@@H](COP(=O)(N(C)C)N3C[C@@H](COP(=O)(N(C)C)N4C[C@@H](COP(=O)(N(C)C)N5C[C@@H](COP(=O)(N(C)C)N6C[C@@H](COP(=O)(N(C)C)N7C[C@@H](COP(=O)(N(C)C)N8C[C@@H](COP(=O)(N(C)C)N9C[C@@H](COP(=O)(N(C)C)N%10C[C@@H](COP(=O)(N(C)C)N%11C[C@@H](CO)O[C@@H](n%12cc(C)c(=O)[nH]c%12=O)C%11)O[C@@H](n%11ccc(N)nc%11=O)C%10)O[C@@H](n%10cc(C)c(=O)[nH]c%10=O)C9)O[C@@H](n9ccc(N)nc9=O)C8)O[C@@H](n8cnc9c(N)ncnc98)C7)O[C@@H](n7cnc8c(=O)[nH]c(N)nc87)C6)O[C@@H](n6cnc7c(N)ncnc76)C5)O[C@@H](n5cc(C)c(=O)[nH]c5=O)C4)O[C@@H](n4cnc5c(=O)[nH]c(N)nc54)C3)O[C@@H](n3cnc4c(=O)[nH]c(N)nc43)C2)O[C@@H](n2cc(C)c(=O)[nH]c2=O)C1 (stereo partly drawn) | > 160 | – | – | – | inactive | inactive | – | – | – | – | –

These reach a lower MIC (Salmonella typhimurium [1]). Values come first.

MIC (Salmonella typhimurium [1]) [µM] | Drug uptake (Serum) [µg/mL] | SMILES | Activity (Salmonella typhimurium [2]) | Activity (Salmonella typhimurium [3]; [9]) | Activity (Salmonella typhimurium [4]) | Activity (Salmonella typhimurium [5]) | Activity (Salmonella typhimurium [6]; [9]) | fold change (FC) (Salmonella typhimurium [3]) | fold change (FC) (Salmonella typhimurium [7]) | Activity (Salmonella typhimurium [6]) [%] | Activity (Salmonella typhimurium [8])
0.156 (≈ 0.883 µg/mL) | 1 | CC(=O)N[C@@H](CCCNC(=N)N)C(=O)NCCCCCC(=O)N[C@@H](CCCNC(=N)N)C(=O)N[C@@H](CCCNC(=N)N)C(=O)NCCCCCC(=O)N[C@@H](CCCNC(=N)N)C(=O)[C@H](CCCNC(=N)N)NC(=O)CCCCCNC(=O)N[C@@H](CCCNC(=N)N)C(=O)N[C@@H](CCCNC(=N)N)C(=O)NCCCCCC(=O)N[C@@H](CCCNC(=N)N)C(=O)NCCCCCC(=O)NCCC(=O)N1C[C@@H](COP(=O)(N(C)C)N2C[C@@H](COP(=O)(N3CCNCC3)N3C[C@@H](COP(=O)(N(C)C)N4C[C@@H](COP(=O)(N(C)C)N5C[C@@H](COP(=O)(N6CCNCC6)N6C[C@@H](COP(=O)(N(C)C)N7C[C@@H](COP(=O)(N(C)C)N8C[C@@H](COP(=O)(N(C)C)N9C[C@@H](COP(=O)(N(C)C)N%10C[C@@H](COP(=O)(N%11CCNCC%11)N%11C[C@@H](CO)O[C@@H](n%12ccc(N)nc%12=O)C%11)O[C@@H](n%11cc(C)c(=O)[nH]c%11=O)C%10)O[C@@H](n%10cc(C)c(=O)[nH]c%10=O)C9)O[C@@H](n9ccc(N)nc9=O)C8)O[C@@H](n8cnc9c(=O)[nH]c(N)nc98)C7)O[C@@H](n7cnc8c(N)ncnc87)C6)O[C@@H](n6cc(C)c(=O)[nH]c6=O)C5)O[C@@H](n5cnc6c(N)ncnc65)C4)O[C@@H](n4cnc5c(=O)[nH]c(N)nc54)C3)O[C@@H](n3cc(C)c(=O)[nH]c3=O)C2)O[C@@H](n2cnc3c(=O)[nH]c(N)nc32)C1 (stereo partly drawn) | Active | – | Active | Active | – | 2 | 3 | 56 | –
1.25 (≈ 6.92 µg/mL) | 1 | CC(=O)N[C@@H](CCCNC(=N)N)C(=O)NCCCCCC(=O)N[C@@H](CCCNC(=N)N)C(=O)N[C@@H](CCCNC(=N)N)C(=O)NCCCCCC(=O)N[C@@H](CCCNC(=N)N)C(=O)[C@H](CCCNC(=N)N)NC(=O)CCCCCNC(=O)N[C@@H](CCCNC(=N)N)C(=O)N[C@@H](CCCNC(=N)N)C(=O)NCCCCCC(=O)N[C@@H](CCCNC(=N)N)C(=O)NCCCCCC(=O)NCCC(=O)N1C[C@@H](COP(=O)(N(C)C)N2C[C@@H](COP(=O)(N(C)C)N3C[C@@H](COP(=O)(N(C)C)N4C[C@@H](COP(=O)(N(C)C)N5C[C@@H](COP(=O)(N(C)C)N6C[C@@H](COP(=O)(N(C)C)N7C[C@@H](COP(=O)(N(C)C)N8C[C@@H](COP(=O)(N(C)C)N9C[C@@H](COP(=O)(N(C)C)N%10C[C@@H](COP(=O)(N(C)C)N%11C[C@@H](CO)O[C@@H](n%12ccc(N)nc%12=O)C%11)O[C@@H](n%11cc(C)c(=O)[nH]c%11=O)C%10)O[C@@H](n%10cc(C)c(=O)[nH]c%10=O)C9)O[C@@H](n9ccc(N)nc9=O)C8)O[C@@H](n8cnc9c(=O)[nH]c(N)nc98)C7)O[C@@H](n7cnc8c(N)ncnc87)C6)O[C@@H](n6cc(C)c(=O)[nH]c6=O)C5)O[C@@H](n5cnc6c(N)ncnc65)C4)O[C@@H](n4cnc5c(=O)[nH]c(N)nc54)C3)O[C@@H](n3cc(C)c(=O)[nH]c3=O)C2)O[C@@H](n2cnc3c(=O)[nH]c(N)nc32)C1 (stereo partly drawn) | – | – | inactive | Active | – | – | – | – | Active
